Residues, ends and D or L forms follow the SMILES beside them.
Legend:
[1] = system: thrombin receptor (LM and RA assays); test: Activity of cyclic TRPs in the bioassays previously described (assay not specified); format: cell-based; details: concentration tested 9 to 200 μM, differs per compound
Procedure: (§1) The guinea pig gastric longitudinal muscle (GLM) strips and the rat thoracic aorta (RA) ring preparations were isolated as previously described 14, 15. In brief, gastric LM strips (3×10 mm), obtained from male albino Hartley strain guinea pigs were equilibrated for about 1.5 h at 37° (in an aerated (95% O2 /5% CO2) Krebs-Henseleit buffer (3 mL) of the following composition (in mM): NaCl, 118; KCl, 4.7; CaCl2, 2.5; MgCl2, 1.2; NaHCO3, 25; KH2 PO4, 1.2; and glucose, 10. The pH was maintained at 7.4. Rat gastric LM strips (3×10 mm) were obtained, as for the GLM strips, from male albino Sprague Dawley animals (250-300 g). The stomach, opened along the greater curvature, was stripped free of all mucosal tissue under microscopic visualization and longitudinal tissue strips were cut exactly at right angles to the visible circular muscle bundles. Tissue strips were pre-equilibrated in the buffer described above. Each tissue was challenged twice each in succession at timed intervals with 50 nM carbachol (20 min intervals), 1 μM angiotensin-II (1 h intervals) and 95 μM (60 μg/mL) receptor pentapeptide (P5, SFLLR, SEQ ID NO: 2) (25 min intervals for GLM; 30-35 min for RLM); tissues were washed at 10 and 15 min after the additions of agonists. Contractions were monitored isometrically using Statham force-displacement transducers. […]
Thoracic RA rings (2 mm×3 mm), obtained from male albino Sprague Dawley rats, were equilibrated (about 1 h, 37° ) in the same organ bath buffer as was used for the LM tissue, and tension (baseline 1.0 g) was monitored isometrically using either Statham or Grass force-displacement transducers. […] Therefore, to construct concentration-effect curves and to normalize data between individual preparations, the relaxation responses to P5 and to the other TRPs were expressed as a percentage of the relaxation caused by 215 μM (137 μg/mL) of P5 (% P5215). For purposes of comparison, the same stock solutions of an individual peptide were evaluated, relative to P5, in both the RA and LM bioassays. […]
Cyclic TRPs were evaluated using the bioassays previously described.

[2] = target: T1, thrombin receptor (guinea pig gastric longitudinal muscle strips) (Cavia porcellus, UniProt A0A286XH07); details: for Relative potency (REC) GLM: average concentration ratio relative to P5 causing equal contractile response (REC = EC TRP ÷ EC P5)
T1 sequence (A0A286XH07 24-426): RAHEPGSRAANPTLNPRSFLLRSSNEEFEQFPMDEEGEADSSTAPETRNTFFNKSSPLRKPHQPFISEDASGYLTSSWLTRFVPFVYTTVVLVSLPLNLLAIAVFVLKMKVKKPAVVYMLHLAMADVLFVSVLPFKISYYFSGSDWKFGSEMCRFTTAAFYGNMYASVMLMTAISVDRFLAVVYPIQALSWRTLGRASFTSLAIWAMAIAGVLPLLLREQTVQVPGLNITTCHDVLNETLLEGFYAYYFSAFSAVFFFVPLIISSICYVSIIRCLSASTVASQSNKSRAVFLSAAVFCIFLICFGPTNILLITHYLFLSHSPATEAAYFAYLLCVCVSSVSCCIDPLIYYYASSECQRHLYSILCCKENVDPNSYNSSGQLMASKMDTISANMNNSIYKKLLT
Procedure: (§2) The guinea pig gastric longitudinal muscle (GLM) strips and the rat thoracic aorta (RA) ring preparations were isolated as previously described 14, 15. In brief, gastric LM strips (3×10 mm), obtained from male albino Hartley strain guinea pigs were equilibrated for about 1.5 h at 37° (in an aerated (95% O2 /5% CO2) Krebs-Henseleit buffer (3 mL) of the following composition (in mM): NaCl, 118; KCl, 4.7; CaCl2, 2.5; MgCl2, 1.2; NaHCO3, 25; KH2 PO4, 1.2; and glucose, 10. The pH was maintained at 7.4. Rat gastric LM strips (3×10 mm) were obtained, as for the GLM strips, from male albino Sprague Dawley animals (250-300 g). The stomach, opened along the greater curvature, was stripped free of all mucosal tissue under microscopic visualization and longitudinal tissue strips were cut exactly at right angles to the visible circular muscle bundles. Tissue strips were pre-equilibrated in the buffer described above. Each tissue was challenged twice each in succession at timed intervals with 50 nM carbachol (20 min intervals), 1 μM angiotensin-II (1 h intervals) and 95 μM (60 μg/mL) receptor pentapeptide (P5, SFLLR, SEQ ID NO: 2) (25 min intervals for GLM; 30-35 min for RLM); tissues were washed at 10 and 15 min after the additions of agonists. Contractions were monitored isometrically using Statham force-displacement transducers. Only tissues responding well to all three agonists were used further for the evaluation of the biological activities of P5 and other peptide agonists.

[3] = HPLC analysis of peptide recovered from RLM and RA organ bath solution; format: in vitro ADME, rat; details: just after peak of tissue response (5-10 min)
Procedure: As illustrated in FIG. 4 (lanes C and D), the organ bath solution withdrawn from either a RLM or RA assay (30-60 μg/mL P5 or 47.5 to 95 μM), just after the peak of tissue response, was subjected to analysis by HPLC and compared with a standard solution of P5 made immediately before HPLC analysis either in buffer alone or in buffer that had been exposed to tissue under the conditions of a bioassay. […] In FIG. 4, the peptide degradation products would have been eluted at retention times earlier than those of either P5 (17.33 min) or P5--NH2 (16.83 min).

[4] = target: T2, thrombin receptor (rat gastric longitudinal muscle strips) (Rattus norvegicus, UniProt P26824); test: Rat gastric longitudinal muscle (RLM) strip contractile assay; format: cell-based
T2 construct: Rat gastric LM strips (3×10 mm) were obtained; from tissue; host or cells: rat (Sprague Dawley) gastric longitudinal muscle strips
T2 sequence (P26824 22-432): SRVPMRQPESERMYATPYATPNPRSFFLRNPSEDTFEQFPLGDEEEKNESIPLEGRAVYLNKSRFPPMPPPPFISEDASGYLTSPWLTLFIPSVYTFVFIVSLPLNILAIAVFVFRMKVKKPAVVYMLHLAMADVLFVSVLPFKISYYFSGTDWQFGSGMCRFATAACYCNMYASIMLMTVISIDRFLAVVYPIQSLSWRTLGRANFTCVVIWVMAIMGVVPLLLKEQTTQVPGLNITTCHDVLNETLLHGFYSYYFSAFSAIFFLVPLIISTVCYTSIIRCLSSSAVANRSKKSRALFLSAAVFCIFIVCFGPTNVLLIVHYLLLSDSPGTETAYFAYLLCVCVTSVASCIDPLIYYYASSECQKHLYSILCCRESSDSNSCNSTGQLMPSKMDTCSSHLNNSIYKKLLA
Description: We obtained an evaluation of the potencies of the various TRPs, relative to P5, by using the linear portions of the concentration-effect curves, so as to calculate for several response levels the average ratio of concentrations (REC) of an individual TRP, relative to concentration of P5 that caused the same contractile response (i.e. REC =ECTRP .div.ECPS). […] In the RA assay, a similar approach to the estimate of relative potencies (REC S) was used, even though all agonists, except for P5--OCH3, appeared to cause equivalent maximal relaxation (FIG. 2, lower).
as §2, with “peptide agonists. For the GLM and RLM assays, concentration-effect curves for all peptides were constructed by expressing the response of each agonist as a percentage (% P595) relative to the contraction caused by 95 μM (60 μg/mL) P5 (0.9±0.1 g tension: mean ±S.E.M. for n=12 in the GLM; 1.6±0.9 g tension: mean ±S.E.M. for n=36 in the RLM).” for “peptide agonists.”
Weighed peptide samples were routinely dissolved in 50 mM phosphate buffer, pH 7.4, to yield stock solutions, from which volumes of up to 0.2 mL were added directly to the organ bath; the concentrations of all stock solutions used were verified by quantitative amino acid analysis of aliquots. Pr-P4 and Pr-P4--NH2 were dissolved in 40 mM phosphate buffer, pH 7.4, containing 20% v/v absolute ethanol (i.e. 8 Vol of the above 50 mM phosphate buffer +2 Vol. ethanol). Control aliquots of the ethanol-containing phosphate buffer alone had no effect on either of the bioassay systems. Acetylcholine, carbachol, indomethacin, noradrenaline and angiotensin-II and thrombin (human, 3000 to 4000 U/mg; 1 U/mL.perspectiveto.10 nM) were from Sigma (St. Louis, Mo.); genistein (GS) was from ICN Biochemicals, Costa Mesa, Calif. Tyrphostin (TP) (RG 50864, also designated AG213) was obtained through the courtesy of Dr. R. R. Swillo, Rhone-Poulenc Rorer (Collegeville, Pa). […] Indomethacin was dissolved in ethanol, such that the final ethanol concentration in the organ bath was at or lower than 0.01% v/v; this concentration of ethanol alone had no effect on the bioassay systems.

[5] = system: thrombin receptor (rat thoracic aorta rings, intact endothelium); details: for Relative potency (REC) RA: average concentration ratio relative to P5 causing equal relaxation response (REC = EC TRP ÷ EC P5)
Procedure: Thoracic RA rings (2 mm×3 mm), obtained from male albino Sprague Dawley rats, were equilibrated (about 1 h, 37° ) in the same organ bath buffer as was used for the LM tissue, and tension (baseline 1.0 g) was monitored isometrically using either Statham or Grass force-displacement transducers. The presence of an intact endothelium was ascertained by monitoring a relaxation response to acetylcholine (ACh, 1 μM) in a preparation that was submaximally (EC75) contracted by 0.1 μM noradrenaline (NA) in the presence of 0.1 mM ascorbic acid (to preserve the catecholamine). Only tissues yielding a relaxation concentration-response curve between 0.01 and 10 μM acetylcholine (maximal relaxation of 70 to 90%, relative to the tension developed by 0.1 μM NA) were used for the further evaluation of the receptor-derived peptides. The assay of TRP responsiveness was done (e.g. see FIG. 1) on tissues that were precontacted with 0.1 μM NA at 30 min time intervals. Tissues were washed approx. 5 min after the application of TRPs. […] For purposes of comparison, the same stock solutions of an individual peptide were evaluated, relative to P5, in both the RA and LM bioassays. When possible, both assays were done simultaneously on the same day.
Weighed peptide samples were routinely dissolved in 50 mM phosphate buffer, pH 7.4, to yield stock solutions, from which volumes of up to 0.2 mL were added directly to the organ bath; the concentrations of all stock solutions used were verified by quantitative amino acid analysis of aliquots. Pr-P4 and Pr-P4--NH2 were dissolved in 40 mM phosphate buffer, pH 7.4, containing 20% v/v absolute ethanol (i.e. 8 Vol of the above 50 mM phosphate buffer +2 Vol. ethanol). […] Indomethacin was dissolved in ethanol, such that the final ethanol concentration in the organ bath was at or lower than 0.01% v/v; this concentration of ethanol alone had no effect on the bioassay systems.

[6] = system: thrombin receptor (gastric longitudinal muscle strips); test: Gastric longitudinal muscle (LM) assay, either or both GLM and RLM; format: cell-based
Procedure: LM: Either or both GLM and RLM
as §1, with “Each tissue was challenged twice each in succession at timed intervals with 50 nM carbachol (20 min intervals), 1 μM angiotensin-II (1 h intervals) and 95 μM (60 μg/mL) receptor pentapeptide (P5, SFLLR, SEQ ID NO: 2) (25 min intervals for GLM; 30-35 min for RLM); tissues were washed at 10 and 15 min after the additions of agonists.” left out
Weighed peptide samples were routinely dissolved in 50 mM phosphate buffer, pH 7.4, to yield stock solutions, from which volumes of up to 0.2 mL were added directly to the organ bath; the concentrations of all stock solutions used were verified by quantitative amino acid analysis of aliquots. […]

[7] = system: platelets; details: reported previously; cited from earlier work

Molecule | Activity relative to SFLLR (SEQ ID NO:2) (P-5) (ECcyclic /ECP-5) [1] | Relative potency (REC) GLM [2] | Recovery of intact peptide from organ bath (HPLC) ([3]; RA organ bath) | Recovery of intact peptide from organ bath (HPLC) ([3]; RLM organ bath) | Relative potency (REC) RLM [4] | Relative potency (REC) RA [5] | other results
CC(C)C[C@@H]1NC(=O)[C@H](Cc2ccccc2)NC(=O)[C@H](CO)NC(=O)[C@H](CCCNC(=N)N)NC(=O)[C@H](CC(C)C)NC1=O | not active at this concentration | – | – | – | – | – | –
CC(C)C[C@H](NC(=O)[C@H](CC(C)C)NC(=O)[C@H](Cc1ccccc1)NC(=O)[C@@H](N)CO)C(=O)N[C@@H](CCCNC(=N)N)C(=O)O [P5, S42 FLLR46, reference compound] | – | 1 | Quantitative recovery | essentially quantitative recovery | 1 | 1 | –
CC(C)C[C@H](NC(=O)[C@H](CC(C)C)NC(=O)[C@H](Cc1ccccc1)NC(=O)[C@@H](N)CO)C(=O)N[C@@H](CCCNC(=N)N)C(N)=O [P5-NH-2, S42 FLLR46 -amide] | – | 0.1 | recovered essentially intact | recovered essentially intact | 0.2 | 0.1 | Desensitization [6]: did not; Desensitization on repeated administration ([2]; GLM): not; Agonist (relaxation) activity ([5]; RA, precontracted with 0.1 μM noradrenaline): transient relaxation
SFALR | – | – | – | – | – | – | Activity in platelets [7]: little impact on the activity

More lines, main results first:

Activity relative to SFLLR (SEQ ID NO:2) (P-5) (ECcyclic /ECP-5) [1] | Molecule | Relative potency (REC) GLM [2] | Recovery of intact peptide from organ bath (HPLC) ([3]; RA organ bath) | Recovery of intact peptide from organ bath (HPLC) ([3]; RLM organ bath) | Relative potency (REC) RLM [4] | Relative potency (REC) RA [5] | other results
2 | CC(C)C[C@@H]1NC(=O)[C@H](Cc2ccccc2)NC(=O)[C@H](CCCNC(=N)N)NC(=O)[C@H](CC(C)C)NC1=O (cyclo(FLLR)) | – | – | – | – | – | –
4 | CC(C)C[C@@H]1NC(=O)[C@H](Cc2ccccc2)NC(=O)CNC(=O)[C@H](CCCNC(=N)N)NC(=O)[C@H](CC(C)C)NC1=O (cyclo(FLLRG)) | – | – | – | – | – | –

— patent US5516889A, “Synthetic thrombin receptor peptides” (University Technologies International, Inc., priority 1995, dated 1996)
